Source: the kinase profiling compilation of Christmann-Franck et al. (2016)
Blank lines part the entries; values can stand above or below the molecule they belong to.

Key:
Assay in all cases: KINOMEscan competition binding
Conditions in all cases: compound 10.0 µM
[1] = molecular target: ACVR2A (human) (UniProt P27037)
[2] = molecular target: BMP2K (human) (UniProt Q9NSY1)
[3] = molecular target: BMPR1B (human) (UniProt O00238)
[4] = molecular target: BRSK2 (human) (UniProt Q8IWQ3)
[5] = molecular target: CAMKK2 (human) (UniProt Q96RR4)
[6] = molecular target: CDK7 (human) (UniProt P50613)
[7] = molecular target: CLK1 (human) (UniProt P49759)
[8] = molecular target: CLK4 (human) (UniProt Q9HAZ1)
[9] = molecular target: CSNK1D (human) (UniProt P48730)
[10] = molecular target: CSNK1E (human) (UniProt P49674)
[11] = molecular target: DAPK2 (human) (UniProt Q9UIK4)
[12] = molecular target: DCLK3 (human) (UniProt Q9C098)
[13] = molecular target: DYRK1B (human) (UniProt Q9Y463)
[14] = molecular target: FLT3 (human) (UniProt P36888)
[15] = tested on: FLT3 (human), P36888 [D835H]
[16] = tested on: FLT3 (human), P36888 [ITD]
[17] = molecular target: GSK3A (human) (UniProt P49840)
Sequence of GSK3A (human) (P49840 whole entry, looked up): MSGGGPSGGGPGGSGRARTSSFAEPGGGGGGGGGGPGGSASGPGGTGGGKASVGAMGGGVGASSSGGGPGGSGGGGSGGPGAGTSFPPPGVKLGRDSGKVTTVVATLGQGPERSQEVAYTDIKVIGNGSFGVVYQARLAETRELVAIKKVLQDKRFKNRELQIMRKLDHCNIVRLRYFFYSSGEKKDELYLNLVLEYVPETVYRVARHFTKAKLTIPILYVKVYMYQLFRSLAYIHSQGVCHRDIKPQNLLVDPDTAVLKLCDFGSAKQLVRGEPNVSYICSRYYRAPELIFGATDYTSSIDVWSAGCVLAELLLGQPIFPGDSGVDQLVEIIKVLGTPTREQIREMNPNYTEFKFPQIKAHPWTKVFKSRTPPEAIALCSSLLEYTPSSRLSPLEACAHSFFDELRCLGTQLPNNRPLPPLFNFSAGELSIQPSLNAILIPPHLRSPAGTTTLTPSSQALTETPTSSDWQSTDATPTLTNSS

[18] = molecular target: HIPK1 (human) (UniProt Q86Z02)
Sequence of HIPK1 (human) (Q86Z02 whole entry, looked up): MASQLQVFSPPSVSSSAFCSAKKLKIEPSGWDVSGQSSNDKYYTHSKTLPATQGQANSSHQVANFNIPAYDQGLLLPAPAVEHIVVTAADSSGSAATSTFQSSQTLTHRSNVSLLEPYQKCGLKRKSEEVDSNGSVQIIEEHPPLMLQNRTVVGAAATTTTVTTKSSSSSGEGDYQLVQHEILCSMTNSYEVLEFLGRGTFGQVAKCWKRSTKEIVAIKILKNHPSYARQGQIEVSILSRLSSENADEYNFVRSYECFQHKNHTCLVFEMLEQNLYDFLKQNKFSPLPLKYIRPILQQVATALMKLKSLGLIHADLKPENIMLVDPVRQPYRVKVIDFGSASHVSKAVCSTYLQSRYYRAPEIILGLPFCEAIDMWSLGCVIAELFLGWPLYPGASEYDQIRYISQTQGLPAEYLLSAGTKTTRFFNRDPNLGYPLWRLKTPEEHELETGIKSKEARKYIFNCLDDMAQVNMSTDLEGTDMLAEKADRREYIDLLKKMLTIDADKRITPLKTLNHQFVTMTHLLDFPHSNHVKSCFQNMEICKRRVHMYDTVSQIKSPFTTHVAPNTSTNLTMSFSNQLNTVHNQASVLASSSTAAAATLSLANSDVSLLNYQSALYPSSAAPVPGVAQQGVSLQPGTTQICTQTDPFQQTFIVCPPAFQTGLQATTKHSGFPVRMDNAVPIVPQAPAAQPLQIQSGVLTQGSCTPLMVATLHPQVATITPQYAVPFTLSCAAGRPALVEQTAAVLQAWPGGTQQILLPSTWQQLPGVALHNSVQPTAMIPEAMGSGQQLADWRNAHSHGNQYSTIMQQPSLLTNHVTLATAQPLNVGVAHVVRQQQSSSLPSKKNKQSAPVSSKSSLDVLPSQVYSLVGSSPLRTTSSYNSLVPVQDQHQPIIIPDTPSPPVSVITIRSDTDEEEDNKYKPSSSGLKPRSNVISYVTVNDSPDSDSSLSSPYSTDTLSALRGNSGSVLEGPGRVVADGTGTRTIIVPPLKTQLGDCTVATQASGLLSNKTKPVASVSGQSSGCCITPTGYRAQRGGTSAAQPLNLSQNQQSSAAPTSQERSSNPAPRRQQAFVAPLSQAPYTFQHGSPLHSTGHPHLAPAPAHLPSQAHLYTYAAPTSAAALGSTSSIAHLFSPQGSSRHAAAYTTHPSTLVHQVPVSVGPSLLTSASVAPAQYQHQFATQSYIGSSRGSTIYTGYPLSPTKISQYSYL

[19] = molecular target: JAK1 JH2 pseudokinase (human) (UniProt P23458)
[20] = molecular target: KIT (human) (UniProt P10721)
[21] = tested on: KIT (human), P10721 [D816V]
[22] = tested on: KIT (human), P10721 [V559D/T670I]
[23] = tested on: KIT (human), P10721 [V559D/V654A]
[24] = molecular target: MAP2K4 (human) (UniProt P45985)
[25] = molecular target: MAP3K5 (human) (UniProt Q99683)
[26] = molecular target: MAP4K2 (human) (UniProt Q12851)
[27] = molecular target: MAP4K4 (human) (UniProt O95819)
[28] = molecular target: MKNK2 (human) (UniProt Q9HBH9)
[29] = molecular target: PIK3CG (human) (UniProt P48736)
[30] = molecular target: PIP4K2B (human) (UniProt P78356)
[31] = molecular target: RIOK1 (human) (UniProt Q9BRS2)
[32] = molecular target: RIOK2 (human) (UniProt Q9BVS4)
[33] = molecular target: RIOK3 (human) (UniProt O14730)
Sequence of RIOK3 (human) (O14730 whole entry, looked up): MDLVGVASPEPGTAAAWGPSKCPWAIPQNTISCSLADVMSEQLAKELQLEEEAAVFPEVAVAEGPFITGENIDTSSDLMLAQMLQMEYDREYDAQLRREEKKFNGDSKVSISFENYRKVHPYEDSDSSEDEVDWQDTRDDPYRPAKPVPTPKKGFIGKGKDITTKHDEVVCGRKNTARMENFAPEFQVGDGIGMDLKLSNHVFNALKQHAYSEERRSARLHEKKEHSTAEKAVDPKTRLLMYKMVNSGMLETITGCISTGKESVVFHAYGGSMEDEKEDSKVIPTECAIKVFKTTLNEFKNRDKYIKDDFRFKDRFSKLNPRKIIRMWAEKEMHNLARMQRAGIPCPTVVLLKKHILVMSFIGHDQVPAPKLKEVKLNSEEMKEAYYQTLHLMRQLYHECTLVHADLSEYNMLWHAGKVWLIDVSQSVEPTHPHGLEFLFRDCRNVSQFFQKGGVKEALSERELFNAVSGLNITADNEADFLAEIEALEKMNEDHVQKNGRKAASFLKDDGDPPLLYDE

[34] = molecular target: RPS6KA1 KD2 (human) (UniProt Q15418)
Sequence of RPS6KA1 KD2 (human) (Q15418 whole entry, looked up): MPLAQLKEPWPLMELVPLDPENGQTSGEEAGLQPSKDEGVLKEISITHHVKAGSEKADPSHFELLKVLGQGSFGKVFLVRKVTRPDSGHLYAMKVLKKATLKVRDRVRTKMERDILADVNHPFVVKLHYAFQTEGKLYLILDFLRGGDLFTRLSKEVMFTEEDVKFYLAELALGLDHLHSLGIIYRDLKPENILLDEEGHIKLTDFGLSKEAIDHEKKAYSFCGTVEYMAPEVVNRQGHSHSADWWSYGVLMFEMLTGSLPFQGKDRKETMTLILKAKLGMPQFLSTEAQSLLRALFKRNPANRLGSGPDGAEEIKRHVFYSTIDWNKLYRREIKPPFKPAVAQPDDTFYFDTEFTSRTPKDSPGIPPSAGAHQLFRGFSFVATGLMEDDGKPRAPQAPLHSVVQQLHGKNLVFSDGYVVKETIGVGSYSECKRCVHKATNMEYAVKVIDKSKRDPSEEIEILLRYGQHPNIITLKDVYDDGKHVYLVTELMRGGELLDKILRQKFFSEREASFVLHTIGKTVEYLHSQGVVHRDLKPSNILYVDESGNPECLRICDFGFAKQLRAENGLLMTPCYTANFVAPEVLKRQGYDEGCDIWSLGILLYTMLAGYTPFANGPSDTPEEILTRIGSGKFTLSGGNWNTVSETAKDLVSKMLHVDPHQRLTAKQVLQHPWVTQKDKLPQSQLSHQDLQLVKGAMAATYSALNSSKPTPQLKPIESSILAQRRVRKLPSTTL

[35] = molecular target: RPS6KA6 KD2 (human) (UniProt Q9UK32)
[36] = molecular target: SRPK2 (human) (UniProt P78362)
Sequence of SRPK2 (human) (P78362 whole entry, looked up): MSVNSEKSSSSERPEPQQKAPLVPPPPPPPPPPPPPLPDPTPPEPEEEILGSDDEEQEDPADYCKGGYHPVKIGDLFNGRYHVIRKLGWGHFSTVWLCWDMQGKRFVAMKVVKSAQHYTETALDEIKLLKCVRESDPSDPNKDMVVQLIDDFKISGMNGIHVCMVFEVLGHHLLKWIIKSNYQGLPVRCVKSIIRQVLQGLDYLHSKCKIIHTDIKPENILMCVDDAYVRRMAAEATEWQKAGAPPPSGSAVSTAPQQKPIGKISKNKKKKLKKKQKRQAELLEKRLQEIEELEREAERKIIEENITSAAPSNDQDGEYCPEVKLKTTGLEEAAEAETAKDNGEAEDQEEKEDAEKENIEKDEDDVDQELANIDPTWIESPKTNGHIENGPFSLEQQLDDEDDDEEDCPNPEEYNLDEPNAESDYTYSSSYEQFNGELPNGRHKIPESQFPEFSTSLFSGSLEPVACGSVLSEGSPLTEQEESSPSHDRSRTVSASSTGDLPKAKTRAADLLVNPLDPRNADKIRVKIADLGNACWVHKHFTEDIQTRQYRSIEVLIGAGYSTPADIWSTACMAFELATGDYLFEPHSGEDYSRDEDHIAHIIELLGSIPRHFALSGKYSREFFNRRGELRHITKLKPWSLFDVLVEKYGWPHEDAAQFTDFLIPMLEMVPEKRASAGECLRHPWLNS

[37] = molecular target: STK17A (human) (UniProt Q9UEE5)
[38] = molecular target: STK24 (human) (UniProt Q9Y6E0)
[39] = molecular target: TAOK1 (human) (UniProt Q7L7X3)
[40] = molecular target: TGFBR2 (human) (UniProt P37173)
[41] = molecular target: TLK1 (human) (UniProt Q9UKI8)
[42] = molecular target: TNK1 (human) (UniProt Q13470)

Sequence of BMPR1B (human) (O00238 whole entry, looked up): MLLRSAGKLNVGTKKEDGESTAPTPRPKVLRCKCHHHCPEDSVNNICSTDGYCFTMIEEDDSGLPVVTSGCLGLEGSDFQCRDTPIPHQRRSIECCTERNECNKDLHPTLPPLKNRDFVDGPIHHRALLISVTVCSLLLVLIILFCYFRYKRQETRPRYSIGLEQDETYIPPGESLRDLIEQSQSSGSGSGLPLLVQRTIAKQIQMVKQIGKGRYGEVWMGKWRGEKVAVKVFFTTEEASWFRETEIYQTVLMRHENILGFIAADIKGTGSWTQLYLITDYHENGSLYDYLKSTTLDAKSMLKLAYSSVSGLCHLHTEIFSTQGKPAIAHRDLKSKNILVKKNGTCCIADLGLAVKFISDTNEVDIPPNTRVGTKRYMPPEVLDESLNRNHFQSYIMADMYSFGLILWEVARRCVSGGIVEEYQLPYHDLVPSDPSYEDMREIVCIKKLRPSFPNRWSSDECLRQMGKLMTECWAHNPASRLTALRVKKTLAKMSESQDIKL
Sequence of BRSK2 (human) (Q8IWQ3 whole entry, looked up): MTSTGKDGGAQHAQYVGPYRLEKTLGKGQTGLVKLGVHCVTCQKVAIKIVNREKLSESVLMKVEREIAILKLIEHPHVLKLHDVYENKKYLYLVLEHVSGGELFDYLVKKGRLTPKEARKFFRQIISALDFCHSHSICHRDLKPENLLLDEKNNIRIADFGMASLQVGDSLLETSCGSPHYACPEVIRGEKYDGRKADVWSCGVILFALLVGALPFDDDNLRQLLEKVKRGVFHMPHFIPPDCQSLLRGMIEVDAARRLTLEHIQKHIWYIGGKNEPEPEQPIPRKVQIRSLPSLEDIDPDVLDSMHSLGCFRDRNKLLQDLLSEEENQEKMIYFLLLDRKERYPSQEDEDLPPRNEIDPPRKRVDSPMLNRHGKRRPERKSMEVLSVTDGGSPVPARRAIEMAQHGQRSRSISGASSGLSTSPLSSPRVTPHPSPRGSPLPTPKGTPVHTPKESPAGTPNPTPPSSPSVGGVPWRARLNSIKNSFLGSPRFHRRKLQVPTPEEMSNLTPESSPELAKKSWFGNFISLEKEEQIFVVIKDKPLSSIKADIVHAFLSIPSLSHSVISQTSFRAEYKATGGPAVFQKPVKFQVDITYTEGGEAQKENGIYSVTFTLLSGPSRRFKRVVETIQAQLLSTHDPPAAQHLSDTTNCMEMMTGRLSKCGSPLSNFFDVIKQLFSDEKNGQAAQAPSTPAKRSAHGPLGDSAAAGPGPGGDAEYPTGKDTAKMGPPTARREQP

kinase still bound, per cent of control [1]: 92% | kinase still bound, per cent of control [2]: 100% | kinase still bound, per cent of control [3]: 100% | kinase still bound, per cent of control [4]: 85% | kinase still bound, per cent of control [5]: 53% | kinase still bound, per cent of control [6]: 100% | kinase still bound, per cent of control [7]: 66% | kinase still bound, per cent of control [8]: 99% | kinase still bound, per cent of control [9]: 76% | kinase still bound, per cent of control [10]: 56% | kinase still bound, per cent of control [11]: 84% | kinase still bound, per cent of control [12]: 100% | kinase still bound, per cent of control [13]: 92% | kinase still bound, per cent of control [14]: 96% | kinase still bound, per cent of control [15]: 86% | kinase still bound, per cent of control [16]: 92% | kinase still bound, per cent of control [17]: 100% | kinase still bound, per cent of control [18]: 68% | kinase still bound, per cent of control [19]: 97% | kinase still bound, per cent of control [20]: 100% | kinase still bound, per cent of control [21]: 100% | kinase still bound, per cent of control [22]: 84% | kinase still bound, per cent of control [23]: 100% | kinase still bound, per cent of control [24]: 98% | kinase still bound, per cent of control [25]: 100% | kinase still bound, per cent of control [26]: 100% | kinase still bound, per cent of control [27]: 85% | kinase still bound, per cent of control [28]: 0.55% | kinase still bound, per cent of control [29]: 100% | kinase still bound, per cent of control [30]: 91% | kinase still bound, per cent of control [31]: 78% | kinase still bound, per cent of control [32]: 50% | kinase still bound, per cent of control [33]: 77% | kinase still bound, per cent of control [34]: 56% | kinase still bound, per cent of control [35]: 60% | kinase still bound, per cent of control [36]: 100% | kinase still bound, per cent of control [37]: 100% | kinase still bound, per cent of control [38]: 100% | kinase still bound, per cent of control [39]: 100% | kinase still bound, per cent of control [40]: 98% | kinase still bound, per cent of control [41]: 97% | kinase still bound, per cent of control [42]: 4.9%
SMILES: COc1cc(N2CCN(C)CC2)ccc1Nc1ncc2c(n1)N(C)c1ccccc1N(C)C2=O

kinase still bound, per cent of control [1]: 100% | kinase still bound, per cent of control [2]: 84% | kinase still bound, per cent of control [3]: 88% | kinase still bound, per cent of control [4]: 85% | kinase still bound, per cent of control [5]: 60% | kinase still bound, per cent of control [6]: 83% | kinase still bound, per cent of control [7]: 73% | kinase still bound, per cent of control [8]: 70% | kinase still bound, per cent of control [9]: 60% | kinase still bound, per cent of control [10]: 92% | kinase still bound, per cent of control [11]: 36% | kinase still bound, per cent of control [12]: 84% | kinase still bound, per cent of control [13]: 54% | kinase still bound, per cent of control [14]: 95% | kinase still bound, per cent of control [15]: 73% | kinase still bound, per cent of control [16]: 100% | kinase still bound, per cent of control [17]: 100% | kinase still bound, per cent of control [18]: 73% | kinase still bound, per cent of control [19]: 70% | kinase still bound, per cent of control [20]: 91% | kinase still bound, per cent of control [21]: 76% | kinase still bound, per cent of control [22]: 79% | kinase still bound, per cent of control [23]: 100% | kinase still bound, per cent of control [24]: 82% | kinase still bound, per cent of control [25]: 100% | kinase still bound, per cent of control [26]: 94% | kinase still bound, per cent of control [27]: 57% | kinase still bound, per cent of control [28]: 32% | kinase still bound, per cent of control [29]: 28% | kinase still bound, per cent of control [30]: 100% | kinase still bound, per cent of control [31]: 100% | kinase still bound, per cent of control [32]: 100% | kinase still bound, per cent of control [33]: 92% | kinase still bound, per cent of control [34]: 8% | kinase still bound, per cent of control [35]: 3.2% | kinase still bound, per cent of control [36]: 100% | kinase still bound, per cent of control [37]: 100% | kinase still bound, per cent of control [38]: 84% | kinase still bound, per cent of control [39]: 60% | kinase still bound, per cent of control [40]: 100% | kinase still bound, per cent of control [41]: 91% | kinase still bound, per cent of control [42]: 5.8%
SMILES: COc1cc(N2CCC(O)CC2)ccc1Nc1ncc2c(n1)N1CCc3cccc(c31)C(=O)N2C

kinase still bound, per cent of control [1]: 100% | kinase still bound, per cent of control [2]: 100% | kinase still bound, per cent of control [3]: 100% | kinase still bound, per cent of control [4]: 100% | kinase still bound, per cent of control [5]: 97% | kinase still bound, per cent of control [6]: 74% | kinase still bound, per cent of control [7]: 100% | kinase still bound, per cent of control [8]: 100% | kinase still bound, per cent of control [9]: 85% | kinase still bound, per cent of control [10]: 89% | kinase still bound, per cent of control [11]: 100% | kinase still bound, per cent of control [12]: 100% | kinase still bound, per cent of control [13]: 100% | kinase still bound, per cent of control [14]: 100% | kinase still bound, per cent of control [15]: 100% | kinase still bound, per cent of control [16]: 100% | kinase still bound, per cent of control [17]: 100% | kinase still bound, per cent of control [18]: 100% | kinase still bound, per cent of control [19]: 100% | kinase still bound, per cent of control [20]: 74% | kinase still bound, per cent of control [21]: 100% | kinase still bound, per cent of control [22]: 75% | kinase still bound, per cent of control [23]: 100% | kinase still bound, per cent of control [24]: 86% | kinase still bound, per cent of control [25]: 94% | kinase still bound, per cent of control [26]: 100% | kinase still bound, per cent of control [27]: 100% | kinase still bound, per cent of control [28]: 66% | kinase still bound, per cent of control [29]: 70% | kinase still bound, per cent of control [30]: 100% | kinase still bound, per cent of control [31]: 80% | kinase still bound, per cent of control [32]: 85% | kinase still bound, per cent of control [33]: 71% | kinase still bound, per cent of control [34]: 94% | kinase still bound, per cent of control [35]: 100% | kinase still bound, per cent of control [36]: 100% | kinase still bound, per cent of control [37]: 100% | kinase still bound, per cent of control [38]: 100% | kinase still bound, per cent of control [39]: 75% | kinase still bound, per cent of control [40]: 100% | kinase still bound, per cent of control [41]: 86% | kinase still bound, per cent of control [42]: 92%
SMILES: CN1CCN(c2ccc(C(=O)Nc3ncc4c(n3)N(C)c3ccccc3C(=O)N4C)cc2)CC1
